From US8455487B2, “Methods of controlling insects” (Syngenta Participations AG, priority 2007, dated 2013)

Key:
pollen beetles [1] = experiment: B.2 unreplicated field test, control of pollen beetle in winter oilseed rape (vs lambda-cyhalothrin); format: in vivo, Meligethes; settings: for % Control 1DAA: foliar
Description: An unreplicated field test was carried out on Winter oilseed rape, (crop stage BBCH 55) and which was under attack by actively foraging pollen beetles (adult beetles: 2.32 beetle/flower cluster). The active ingredient pymetrozine ((E)-4,5-dihydro-6-methyl-4-(3-pyridylmethyleneamino)-1,2,4-triazin-3(2H)-one; formulated as Chess 50% WG) was tested at rates of 12.5, 50 and 200 g ai/ha and compared to the activity of lambda-cyhalothrin (formulated as Karate Zeon 10CS) at 5 g ai/ha. Foliar application of the compounds under test was effected using a conventional spray boom. The degree of pest infestation was assessed pre-spray (average of 2.3 adult pollen beetles per flower cluster in the check plot) and compared to that observed 1day after application.

pollen beetles [2] = experiment: B.3 field trial, control of pollen beetle in oilseed rape, extremely high pest pressure (vs lambda cyhalothrin and thiacloprid); format: in vivo, Meligethes; settings: foliar
Description: A third field trial (randomized complete block) was carried out on oilseed rape, which had reached crop stage BBCH 55 (new growth with 30 to 60 cm height; flower buds, open flowers, some small seed pods formed) and which was under attack by actively foraging pollen beetles (adult beetles: 10 beetle/flower cluster). The active ingredient pymetrozine ((E)-4,5-dihydro-6-methyl-4-(3-pyridylmethyleneamino)-1,2,4-triazin-3(2H)-one; formulated as Plenum 50% WG) was tested at rates of 50, 100 and 150 g ai/ha and compared to the activity of lambda cyhalothrin (7.5 g ai/ha) and thiacloprid (72 g ai/ha). Foliar application of the compounds under test was effected using a conventional spray boom and a volume of 400 L/ha. The degree of pest control was assessed pre-spray, and compared to that observed 2 hours, 1, 3 and 5 days after application.

[3] = test system: pyrethroid resistant Pollen Beetle; experiment: B.4 field trial, control of pyrethroid resistant pollen beetle in oilseed rape; format: in vivo, Meligethes
Description: A further field trial (randomized complete block, 30 racemes per plot) was carried out on oilseed rape, which had reached crop stage BBCH 57-59 (individual flower buds—secondary inflorescence—visible but still closed) and which was under attack by actively foraging pollen beetles (adult beetles: average of 30 adult beetles/plot). The active ingredient pymetrozine ((E)-4,5-dihydro-6-methyl-4-(3-pyridylmethylene-amino)-1,2,4-triazin-3(2H)-one; formulated as Plenum 50% WG) was tested at rates of 50, 100 and 150 g ai/ha and compared to the activity of lambda cyhalothrin (7.5 g ai/ha) and thiacloprid (72 g ai/ha). Foliar application of the compounds under test was effected using a conventional spray boom and a volume of 500 L/ha. The degree of pest control was assessed pre-spray, and compared to that observed 1 and 3 days after application.

[4] = test system: pyrethroid resistant Pollen Beetle; experiment: B.5 three field trials, control of pyrethroid resistant pollen beetle in oilseed rape; format: in vivo, Meligethes; settings: foliar
Description: Three further field trials (randomized complete block, 25 plants per plot) were carried out on oilseed rape, which had reached crop stage BBCH 57-63 and which was under attack by actively foraging pollen beetles (adult beetles: average of 27 adult beetles/plot). The active ingredient pymetrozine ((E)-4,5-dihydro-6-methyl-4-(3-pyridylmethylene-amino)-1,2,4-triazin-3(2H)-one; formulated as Plenum 50% WG) was tested at rates of 75, 100 and 150 g ai/ha and compared to the activity of lambda cyhalothrin (7.5 g ai/ha) and thiacloprid (72 g ai/ha). Foliar application of the compounds under test was effected using a conventional spray boom and a volume of 300 L/ha. The degree of pest control was assessed pre-spray, and compared to that observed 1, 4 and 7 days after application.

pollen beetles [5] = experiment: B.1 field trial, control of pollen beetle in winter oilseed rape (vs Lavender oil and Quassan 30); format: in vivo, Meligethes; settings: foliar
Description: A randomized complete block field trial was carried out on winter oilseed rape, which had reached crop stage BBCH 55 (flower buds, open flowers, some small seed pods formed) and which was under attack by actively foraging pollen beetles (adult beetles: 1 beetle/flower cluster). The active ingredient pymetrozine ((E)-4,5-dihydro-6-methyl-4-(3-pyridylmethyleneamino)-1,2,4-triazin-3(2H)-one; formulated as Plenum 50% WG) was tested at rates of 50 and 150 g ai/ha and compared to the activity of Lavender oil (at rates of 1000 g ai/ha and 2500 g ai/ha) and Quassia amara extract (Quassan 30; applied at rates of 30, 90 and 270 g ai/ha). Foliar application of the compounds under test was effected using a conventional spray boom and a volume of 500 L/ha. The degree of pest control was assessed pre-spray, and compared to that observed 1, 3 and 5 days after application.

[6] = test system: insects from the Coccinellidae family; settings: Sechser et al. 2002 J. Pest Science 75:72-77; cited from earlier work
[7] = test system: insects from the Carabidae family; settings: Sechser et al. 2002 J. Pest Science 75:72-77; cited from earlier work
[8] = test system: insects from the Staphylinidae family; settings: Sechser et al. 2002 J. Pest Science 75:72-77; cited from earlier work

CC1(C)[C@H](C(=O)O[C@H](C#N)c2cccc(Oc3ccccc3)c2)[C@@H]1/C=C(\Cl)C(F)(F)F (racemic) [Lambda cyhalothrin]
% Control 1DAA (pollen beetles [1]; 5 g ai/ha, 1DAA): 100% | % Control (pollen beetles [2]; 7.5 g ai/ha, 1 DAA): 75% | % Control (pollen beetles [2]; 7.5 g ai/ha, 3 DAA): 92% | % Control (pollen beetles [2]; 7.5 g ai/ha, 5 DAA): 23% | % Control (pollen beetles [2]; 7.5 g ai/ha, 2 hrs aa): 63.4% | % Control ([3]; 7.5 g ai/ha, foliar, 1 DAA): 73% | % Control ([3]; 7.5 g ai/ha, foliar, 3 DAA): 60% | level of control (in words) ([3]; recommended field rate (7.5 g ai/ha)): low level of control | Mean % Control ([4]; 7.5 g ai/ha, 1 DAA): 33.0% | Mean % Control ([4]; 7.5 g ai/ha, 4 DAA): 20.0% | Mean % Control ([4]; 7.5 g ai/ha, 7 DAA): 18.1%

CC1=NNC(=O)N(N=Cc2cccnc2)C1 [Pymetrozine, 4,5-dihydro-6-methyl-4-(3-pyridylmethyleneamino)-1,2,4-triazin-3(2H)-one]
Percentage Control (pollen beetles [5]; 50 g ai/ha, 1 DAA): 90% | Percentage Control (pollen beetles [5]; 50 g ai/ha, 3 DAA): 98% | Percentage Control (pollen beetles [5]; 50 g ai/ha, 5DAA): 99% | Percentage Control (pollen beetles [5]; 150 g ai/ha, 1 DAA): 86% | Percentage Control (pollen beetles [5]; 150 g ai/ha, 3 DAA): 92% | Percentage Control (pollen beetles [5]; 150 g ai/ha, 5DAA): 95% | % Control 1DAA (pollen beetles [1]; 12.5 g ai/ha, 1DAA): 90% | % Control 1DAA (pollen beetles [1]; 50 g ai/ha, 1 DAA): 98% | % Control 1DAA (pollen beetles [1]; 200 g ai/ha, 1DAA): 100% | control of Meligethes (in words) (pollen beetles [1]; at all rates (12.5, 50, 200 g ai/ha), 1DAA): excellent control | % Control (pollen beetles [2]; 50 g ai/ha, 1 DAA): 19% | % Control (pollen beetles [2]; 50 g ai/ha, 3 DAA): 44% | % Control (pollen beetles [2]; 50 g ai/ha, 5DAA): 0% | % Control (pollen beetles [2]; 50 g ai/ha, 2 hrs aa): 37.3% | % Control (pollen beetles [2]; 100 g ai/ha, 1 DAA): 61% | % Control (pollen beetles [2]; 100 g ai/ha, 3 DAA): 77% | % Control (pollen beetles [2]; 100 g ai/ha, 5 DAA): 0% | % Control (pollen beetles [2]; 100 g ai/ha, 2 hrs aa): 39.9% | % Control (pollen beetles [2]; 150 g ai/ha, 1 DAA): 61% | % Control (pollen beetles [2]; 150 g ai/ha, 3 DAA): 84% | % Control (pollen beetles [2]; 150 g ai/ha, 5DAA): 0% | % Control (pollen beetles [2]; 150 g ai/ha, 2 hrs aa): 42.5% | % Control ([3]; 3DAA, rates 50, 100 and 150 g ai/ha): > 90% | % Control ([3]; 50 g ai/ha, foliar, 1 DAA): 60% | % Control ([3]; 50 g ai/ha, foliar, 3 DAA): 96% | % Control ([3]; 100 g ai/ha, foliar, 1 DAA): 62% | % Control ([3]; 100 g ai/ha, foliar, 3 DAA): 97% | % Control ([3]; 150 g ai/ha, foliar, 1 DAA): 78% | % Control ([3]; 150 g ai/ha, foliar, 3 DAA): 96% | Mean % Control ([4]; 75 g ai/ha, 1 DAA): 89.9% | Mean % Control ([4]; 75 g ai/ha, 4 DAA): 72.4% | Mean % Control ([4]; 75 g ai/ha, 7 DAA): 92.8% | Mean % Control ([4]; 100 g ai/ha, 1 DAA): 87.2% | Mean % Control ([4]; 100 g ai/ha, 4 DAA): 72.9% | Mean % Control ([4]; 100 g ai/ha, 7 DAA): 92.8% | Mean % Control ([4]; 150 g ai/ha, 1 DAA): 95.2% | Mean % Control ([4]; 150 g ai/ha, 4 DAA): 77.4% | Mean % Control ([4]; 150 g ai/ha, 7 DAA): 91.3% | effect on insects (in words) [6]: no effect | effect on insects (in words) [7]: no effect | effect on insects (in words) [8]: no effect

N#C/N=C1\SCCN1Cc1ccc(Cl)nc1 [Thiacloprid]
% Control (pollen beetles [2]; 72 g ai/ha, 1 DAA): 67% | % Control (pollen beetles [2]; 72 g ai/ha, 3 DAA): 92% | % Control (pollen beetles [2]; 72 g ai/ha, 5 DAA): 0% | % Control (pollen beetles [2]; 72 g ai/ha, 2 hrs aa): 39.9% | % Control ([3]; 72 g ai/ha, foliar, 1 DAA): 63% | % Control ([3]; 72 g ai/ha, foliar, 3 DAA): 94% | Mean % Control ([4]; 72 g ai/ha, 1 DAA): 74.7% | Mean % Control ([4]; 72 g ai/ha, 4 DAA): 92.5% | Mean % Control ([4]; 72 g ai/ha, 7 DAA): 78.3%
